Reference: patent US5912330A, “Crystalline maltosyl glucoside, and its production and use” (Kabushiki Kaisha Hayashibara Seibutsu Kagaku Kenkyujo, priority 1994, dated 1999)
In brackets after ≈: the same amount, converted by molar mass.

How the values were obtained:
[1] = Hygroscopicity: water content and appearance at 90.1% relative humidity; type: physicochemical; conditions: for Hygroscopicity and appearance: in words
Experimental: About 1 g powder of hydrous crystalline maltosyl glucoside, anhydrous crystalline maltosyl glucoside or amorphous crystalline maltosyl glucoside was placed in a polyethylene vessel and allowed to stand in high humidity conditions of 90.1% relative humidity, and the changes of moisture content and appearance of these powders were observed and measured at a prescribed interval. Hydrous and anhydrous crystals, which were prepared by the methods of Experiment B-1, and amorphous crystal, which was prepared by dissolving hydrous crystal substance in deionized water and dried in vacuo to obtain a test sample.

mice = assay: Acute toxicity in mice upon oral administration; type: in vivo; conditions: for mortality: maximum administrable dose
Experimental: (§1) Hydrous and anhydrous crystalline maltosyl glucosides prepared by the method in Experiment B-1 were tested for acute toxicity in mice upon oral administration.

Solubility in water = type: physicochemical; conditions: 25° C. water
Experimental: (8) Solubility (as anhydride)
Up to about 163 g each hydrous and anhydrous crystals were respectively soluble in 100 ml of 25° C. water.

[2] = Moisture adsorption / hygroscopicity of the products of the Examples; type: physicochemical
[3] = Acute toxicity in mice upon oral administration; type: in vivo; conditions: mouse, in vivo
Experimental: as §1

[4] = Reducing power (DE) by Somogyi-Nelson method; type: physicochemical; conditions: dextrose equivalent
Text: For purifying these newly formed saccharides, the reaction products were decolored, deionized, concentrated and subjected to column fractionation using a strongly-acidic cation exchanger in alkali-metal form ("XT-1016", Na^+ form, 4% cross-linking degree, a product of Tokyo Organic Chemical Industries, Ltd., Tokyo, Japan). More particularly, the cation exchanger was packed in 3 jacketed stainless steel columns, inner diameter of 2.0 cm, length of 1 m each, cascaded in series, which were then loaded with either reaction product in an amount of 5 v/v % to the volume of the cation exchanger and then applied with 55° C. water at an SV (space velocity) 0.13 for fractionation, and fractions containing 97% or more newly formed saccharides were collected. The obtained fractions were separately lyophilized into high-purity saccharide preparations. The yields against particular material substrates were about 9% for PI, about 65% for PII, about 82% for PIII, about 80% for PIV and about 77% for PV, and the final purities were 97.5% for PI, 98.6% for PII, 99.5% for PIII, 98.4% for PIV and 98.4% for PV.
These high-purity saccharide preparations were tested for their reducing powers with the Somogyi-Nelson method and their reducing powers were represented in terms of DE (dextrose equivalent).

`OC[C@H]1O[C@H](O[C@H]2O[C@H](CO)[C@@H](O[C@H]3O[C@H](CO)[C@@H](O)[C@H](O)[C@H]3O)[C@H](O)[C@H]2O)[C@H](O)[C@@H](O)[C@@H]1O` [Amorphous crystal, O-α-D-glucopyranosyl-(→4)-α-D-glucopyranosyl α-D-glucopyranoside] gave a Water content ([1]; 0 hour) of 0.5%, a Water content ([1]; 2 hours) of 6.3% and a Water content ([1]; 8 hours) of 17.4%. The Water content ([1]; 24 hours) was 20.0% and the Hygroscopicity and appearance [1] was “very hygroscopic, readily solidified, and free flowing”.
Work on `OC[C@H]1O[C@H](O[C@H]2O[C@H](CO)[C@@H](O[C@H]3O[C@H](CO)[C@@H](O)[C@H](O)[C@H]3O)[C@H](O)[C@H]2O)[C@H](O)[C@@H](O)[C@@H]1O` [Anhydrous crystal, O-α-D-glucopyranosyl-(→4)-α-D-glucopyranosyl α-D-glucopyranoside] yielded a Water content ([1]; 0 hour) of 0.3%, a Water content ([1]; 2 hours) of 10.3% and a Water content ([1]; 8 hours) of 10.4%. For the same compound, the Water content ([1]; 24 hours) was 10.5%, the Hygroscopicity and appearance [1] was “hygroscopic, however, had no change of appearance and retained free-flowing ability” and the LD50 (mice) was at least 50000 mg/kg. For the same compound, the mortality (mice) was “no mouse died” and the “Solubility (as anhydride)” value (Solubility in water) was “about 163 g/100 ml”.
For `OC[C@H]1O[C@H](O[C@H]2O[C@H](CO)[C@@H](O[C@H]3O[C@H](CO)[C@@H](O)[C@H](O)[C@H]3O)[C@H](O)[C@H]2O)[C@H](O)[C@@H](O)[C@@H]1O` [Example A-1], the hygroscopicity ([2]; in words, product of the Example) was “substantially no hygroscopicity”.
In the case of `OC[C@H]1O[C@H](O[C@H]2O[C@H](CO)[C@@H](O[C@H]3O[C@H](CO)[C@@H](O)[C@H](O)[C@H]3O)[C@H](O)[C@H]2O)[C@H](O)[C@@H](O)[C@@H]1O` [Example A-5], the “water content after standing in a room” value ([2]; anhydrous crystal converted into hydrous crystal) was “about 10%”.
`OC[C@H]1O[C@H](O[C@H]2O[C@H](CO)[C@@H](O[C@H]3O[C@H](CO)[C@@H](O)[C@H](O)[C@H]3O)[C@H](O)[C@H]2O)[C@H](O)[C@@H](O)[C@@H]1O` [Hydrous crystal, O-α-D-glucopyranosyl-(→4)-α-D-glucopyranosyl α-D-glucopyranoside] gave a Water content ([1]; 0 hour) of 9.9%, a Water content ([1]; 2 hours) of 10.4% and a Water content ([1]; 8 hours) of 10.5%. The Water content ([1]; 24 hours) was 10.5%, the Hygroscopicity and appearance [1] was “less hygroscopic, free flowing, and readily handleable” and the LD50 [3] was at least 50000 mg/kg. The mortality (mice) was “no mouse died” and the solubility (Solubility in water; read-out: Solubility (as anhydride)) was about 1630 mg/mL (≈ 3230 mM).
For `OC[C@H]1O[C@H](O[C@H]2O[C@H](CO)[C@@H](O[C@H]3O[C@H](CO)[C@@H](O)[C@H](O)[C@H]3O)[C@H](O)[C@H]2O)[C@H](O)[C@@H](O)[C@@H]1O` [PI, α-maltosyl glucoside], the DE [4] was 0.83.
`OC[C@H]1O[C@H](O[C@H]2O[C@H](CO)[C@@H](O[C@H]3O[C@H](CO)[C@@H](O[C@H]4O[C@H](CO)[C@@H](O)[C@H](O)[C@H]4O)[C@H](O)[C@H]3O)[C@H](O)[C@H]2O)[C@H](O)[C@@H](O)[C@@H]1O` [PII, α-maltotriosyl glucoside] gave a DE [4] of 0.35.
In the case of `OC[C@H]1O[C@H](O[C@H]2O[C@H](CO)[C@@H](O[C@H]3O[C@H](CO)[C@@H](O[C@H]4O[C@H](CO)[C@@H](O[C@H]5O[C@H](CO)[C@@H](O)[C@H](O)[C@H]5O)[C@H](O)[C@H]4O)[C@H](O)[C@H]3O)[C@H](O)[C@H]2O)[C@H](O)[C@@H](O)[C@@H]1O` [PIII, α-maltotetraosyl glucoside], the DE [4] was 0.10.
Compound `OC[C@H]1O[C@H](O[C@H]2O[C@H](CO)[C@@H](O[C@H]3O[C@H](CO)[C@@H](O[C@H]4O[C@H](CO)[C@@H](O[C@H]5O[C@H](CO)[C@@H](O[C@H]6O[C@H](CO)[C@@H](O)[C@H](O)[C@H]6O)[C@H](O)[C@H]5O)[C@H](O)[C@H]4O)[C@H](O)[C@H]3O)[C@H](O)[C@H]2O)[C@H](O)[C@@H](O)[C@@H]1O` [PIV, α-maltopentaosyl glucoside] has a DE [4] of 0.27.
Work on `OC[C@H]1O[C@H](O[C@H]2O[C@H](CO)[C@@H](O[C@H]3O[C@H](CO)[C@@H](O[C@H]4O[C@H](CO)[C@@H](O[C@H]5O[C@H](CO)[C@@H](O[C@H]6O[C@H](CO)[C@@H](O[C@H]7O[C@H](CO)[C@@H](O)[C@H](O)[C@H]7O)[C@H](O)[C@H]6O)[C@H](O)[C@H]5O)[C@H](O)[C@H]4O)[C@H](O)[C@H]3O)[C@H](O)[C@H]2O)[C@H](O)[C@@H](O)[C@@H]1O` [PV, α-maltohexaosyl glucoside] yielded a DE [4] of 0.23.
